# Patent US10874638B2, “Methods and compositions for modulating hormone levels” (priority 2014, dated 2020)
# Key:
# [1] = test system: ovariectomized mature female rats; assay: Ovariectomized mature female rat model; type: in vivo; conditions: restoration mode
# Method: Ovariectomized mature female rats are used to characterize primarily bone activity of the compositions provided herein or the individual SERM or SARM compounds. A sham group is used as control. The model can be run in either maintenance mode where the animals are dosed one day after the ovariectomy or restoration mode where the animals are dosed seven to eight weeks after the surgery. The rats are scanned by dual energy x-ray absorptiometry and sorted into experimental groups based upon femoral bone mineral content (BMC). Three dosages of testing compositions/compounds are administered orally once a day for 4, 8, or 12 weeks and estradiol and testosterone are administered subcutaneously to the reference groups. Animals received subcutaneous injections of fluorochrome markers for bone histomorphometric analysis. Alizarian Red S was prepared as a 3% solution and given at a dose of 30 mg/kg at the time of the baseline scan. Calcein was administered 10 days and 3 days prior to necropsy.
# Approximately 24 hours after the last dose, blood is collected and the gastrocnemius muscle, plantaris muscle, uterus, clitoral glands, clitoris and inguinal fat pads were isolated, blotted and weighed individually. The left femur and lumbar vertebra L5 are wrapped in saline-soaked gauze and stored at −20° C. for biochemical analysis. The right femur and lumbar vertebrae L3-L4 are collected and stored in 70% ethanol for histomorphometry. The right tibia is collected in formalin for histological analysis. The left tibia is collected on dry ice and stored at −20° C. for measurement of alkaline phosphatase activity.
# BMC, bone mineral density (BMD) and bone length are measured by pDEXA on an entire femur. The coefficient of variation for repeated measurement of the isolated femur is less than 0.4% for the BMC and the BMD measurements. […] Serum osteocalcin, a marker for bone turnover, and alkaline phosphatase derived from the tibial periosteum are also measured. Whole femurs are collected for biomechanical analysis and thawed at room temperature prior to testing. Peak load and peak displacement are measured directly from the load cell and the crosshead, respectively. Stiffness is calculated from the slope of the linear region of the load/displacement curve. Lumbar vertebra L5 is also measured in the mechanical testing for bone strength.
# Bone histomorphometry is performed to indicate growth of the new bone during the study. The section from the lumbar vertebral bodies is used for histomorphometric indices of cancellous bone, while the sections of the femur mid-shafts are used for histomorphometric indices of cortical bone.
# Body weight, gastrocnemius weight and plantaris weight changes are measured indicating anabolic activity of the testing compositions/compounds on skeletal muscle. Inguinal fat pad weight is used as a representative fat pad to assess the effects of the testing compounds on body fat. Clitoral gland and clitoral weights are measured to assess the virilizing effect of drugs.
# In the maintenance node of this model, (5R,6S)-6-phenyl-5-[4-(2-pyrrolidin-1-ylethoxy)phenyl]-5,6,7,8-tetrahydronaphthalen-2-ol (Compound 1) was dosed daily at 0 (sham), 0 (OVX), 0.01, 0.05, and 0.25 mg/kg for 8 weeks and 17α-ethynylestradiol was dosed at 0.03 mg/kg/day. […] Micro-computerized tomography (uCT) measured the density and connectivity of the trabecular bone in the femur and pQCT measured at the distal femur.
# In the restoration mode of this osteopenic female rat model, 4-(2(R)-(1(S)-hydroxyl-2,2,2-trifluoroethyl)-pyrrolidinyl)-2-trifluoromethylbenzonitrile (Compound 2, Formula I, R^1═CF3, R^2═R^3═H) was dosed at 0 (sham), 0 (OVX), 0.03, 0.3, and 3 mg/kg orally for 12 weeks. […] Compound 2 suppressed cancellous bone turnover while increasing trabecular bone volume and increasing bone mineral density at the lumbar spine.
# In the same experiment of Compound 2, another SARM compound, ostarine, was dosed at 0.03, 0.3, and 3 mg/kg/day orally for 12 weeks.
# [2] = test system: intact cynomolgus male and female monkeys; assay: Intact cynomolgus monkey model; type: in vivo; conditions: for serum cholesterol decrease, of the corresponding Day −3 values: males and females
# Method: Intact cynomolgus male and female monkeys are used to assess of the effects of the compositions provided herein or the individual SERM or SARM compounds on hypothalamic-pituitary-gonadal axis and lipid profile. All animals are dosed via oral or nasol gavage once daily for consecutive days with either vehicle or testing articles of different doses. The first day of dosing is designated Day 1 for all animals. Blood samples are collected for analysis of LH, FSH, T, Estrodiol, total cholesterol, triglycerides, cortisol, and coagulation parameters included prothrombin time (PT) and activated partial thromboplastin time on Days −3 and end of the study.
# In this model, Compound 2 was dosed at 0, 5, 50, 150, and 450 mg/kg/day for 14 days. […] In a separate study, the compound was dosed at 0, 3, 10, 30, 120, and 500 mg/kg/day for 30 days. […] Serum testosterone was suppressed in males as indicated by lower 75th, 50th, and 25th percentile values in samples from treated monkeys than vehicle controls.
# In this model, Compound 1 was dosed at 0, 1, 5, and 15 mg/kg/day for 3 months.
# healthy young men = conditions: cited from earlier work
# [3] = test system: orchidectomized male Sprague-Dawley rat; assay: Orchidectomized mature male rat model
# [4] = 0.03, 0.3, 3 mg/kg orally for 12 weeks
# [5] = females, 3 to 500 mg/kg/day for 30 days
compound,measurement,setting,value
"N#Cc1ccc(N2CCC[C@@H]2[C@H](O)C(F)(F)F)cc1C(F)(F)F [Compound 2, 4-(2(R)-(1(S)-hydroxyl-2,2,2-trifluoroethyl)-pyrrolidinyl)-2-trifluoromethylbenzonitrile]","activity on the clitoral gland, clitoris or uterus relative to testosterone",[1]; 0.3 mg/kg/day dose,reduced activity
same,efficacy on muscle and bone compared with testosterone,[1]; 0.3 mg/kg/day dose,more efficacious
same,bone mineral density at the lumbar spine,[1]; [4],increasing
same,cancellous bone turnover,[1]; [4],suppressed
same,"cortical bone mass, density, strength, stiffness and periosteal bone formation rates",[1]; [4],significantly increased
same,"gastrocnemius muscle weight, plantaris muscle weight and body weight",[1]; [4],increased
same,inguinal fat pad weight,[1]; [4],without affecting
same,trabecular bone volume,[1]; [4],increasing
same,triglycerides,"[2]; Day 14, 5 to 450 mg/kg/day for 14 days",without dose dependent changes
same,"serum cholesterol decrease, of the corresponding Day −3 values","[2]; Day 14, 5 mg/kg/day for 14 days",71%
same,"serum cholesterol decrease, of the corresponding Day −3 values","[2]; Day 14, 50 mg/kg/day for 14 days",81%
same,"serum cholesterol decrease, of the corresponding Day −3 values","[2]; Day 14, 150 mg/kg/day for 14 days",79%
same,"serum cholesterol decrease, of the corresponding Day −3 values","[2]; Day 14, 450 mg/kg/day for 14 days",84%
same,effect on the hypothalamic-pituitary-gonadal axis,"[2]; female and male monkeys, 3 to 500 mg/kg/day for 30 days",suppressive effect
same,serum FSH,[2]; [5],significantly suppressed
same,serum estradiol,[2]; [5],significantly suppressed
same,serum testosterone,"[2]; males, lower 75th, 50th, 25th percentile values than vehicle controls, 30 days",suppressed
same,serum FSH,"[2]; sentence follows the male results, 30 days",not significantly altered
same,safety and pharmacokinetic profiles,healthy young men,favorable safety and pharmacokinetic profiles
same,exposure versus dose,"[3]; 0.03 to 100 mg/kg/day for 14 days, rat",dose proportional exposure
same,efficacy (relative to sham) in sex accessory and sebaceous glands,[3]; at doses that maintained levator ani weights at sham equivalent levels,lower efficacy
same,serum LH,[3]; at high doses,suppressed serum LH below sham-equivalent levels
same,AUC24,"[3]; at the dose of 2 mg/kg/day, rat",0.2
same,activity in musculoskeletal endpoints,"[3]; restoration mode, 0.03 to 100 mg/kg/day for 14 days",positive activity
same,dose reducing the elevated LH levels in castrate rats,"[3]; restoration mode, 14 days",≥ 10 mg/kg/day
same,dose that maintained levator ani weight at sham-equivalent levels,"[3]; restoration mode, 14 days",2 mg/kg/day
same,tissue selectivity toward the muscle endpoint,"[3]; restoration mode, 14 days",tissue selective activity
